The values below come from patent US4721775A, “Effective peptides related to the luteinizing hormone releasing hormone from L-amino acids” (Board of Regents, The University of Texas System, priority 1985, dated 1988).

For assay [1], the system named is release of LH. The experiment in a line: Release of LH in rats after sc injection. In kind it is in vivo. The settings on record: for release of LH compared with LHRH: sc injection, dose and time as stated in the source. An excerpt: (§1) The data on the release of LH and FSH in rats by modifications of LHRH with one structural change are in Table II.
(§2) Exclusive of the salmon-LHRH, only one of the six decapeptides with two structural changes had significant activity.

Assay [2] deals with release of FSH. The experiment in a line: Release of FSH in rats after sc injection. In kind it is in vivo.
Excerpt: as §1, §2

For assay [3], the system named is release of LH. The conditions noted are these: at 1000 and 5000 ng; cited from earlier work.
Assay [4] deals with release of FSH. The settings on record: at 1000 and 5000 ng; cited from earlier work.
Assay [5] concerns the target T1, receptor identified with LHRH (Rattus norvegicus, UniProt P30969).
T1 construct: in tissue there is very likely a different receptor; from tissue
T1 sequence (P30969 1-327): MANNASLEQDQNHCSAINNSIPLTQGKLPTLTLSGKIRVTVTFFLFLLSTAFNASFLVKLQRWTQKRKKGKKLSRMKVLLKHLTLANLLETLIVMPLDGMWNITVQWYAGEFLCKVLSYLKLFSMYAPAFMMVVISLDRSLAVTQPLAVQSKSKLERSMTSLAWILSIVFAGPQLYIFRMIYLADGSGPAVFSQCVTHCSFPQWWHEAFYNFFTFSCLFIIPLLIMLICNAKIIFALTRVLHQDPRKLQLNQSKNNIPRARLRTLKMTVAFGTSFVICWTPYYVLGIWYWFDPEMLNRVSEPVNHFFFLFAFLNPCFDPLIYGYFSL
The experiment in a line: Radio receptor assay (RRA) with 125I-D-Lys6-LHRH as ligand. It counts as binding. The conditions noted are these: relative to LHRH. An excerpt:
Data are included in Table II, III, IV and V from radio receptor assays as described by Heber et al. (Am. J. Physiol. […]: E227-E230 (1978)).
For the radio receptor assay, labelled ^125 I-D-Lys^6 -LHRH, was utilized as the ligand. The results are expressed as the relative inhibitory binder of the analog to LHRH at ID50 values.

Assay [6] concerns release of FSH. The experiment in a line: Release of FSH in rats after sc injection. In kind it is in vivo. The settings on record: dose and time as stated in the source.
In assay [7] the test system is rat anterior pituitary cells in primary culture. The conditions noted are these: in vitro, rat pituitary cells; Sherwood et al. (a), Miyamoto et al. (b); cited from earlier work.
Assay [8] has as its system rat pituitary cells. The settings on record: in vitro, rat pituitary cells; Miyamoto et al. (b); cited from earlier work.
Assay [9] concerns release of FSH. The settings on record: comparison with purified hypothalamic fractions; cited from earlier work.
Assay [10] relates to ovulation. The settings on record: 250 ng; rats; cited from earlier work.
The mark [11] stands for this setting: 60 min. after sc injection, 300 ng, LHRH = 100.
Setting [12] is: 60 min. after sc injection, 3000 ng, LHRH = 100.
[13] abbreviates: release 15 min. after sc injection, dosage of peptide 100 ng.
The mark [14] stands for this setting: release 15 min. after sc injection, dosage of peptide 1000 ng.
[15] abbreviates: release 60 min. after sc injection, dosage of peptide 300 ng.
Where [16] appears, read: release 60 min. after sc injection, dosage of peptide 3000 ng.
Where [17] appears, read: 15 min. after sc injection, 50 ng, LHRH = 100.
Where [18] appears, read: 15 min. after sc injection, 100 ng, LHRH = 100.
Setting [19] is: 15 min. after sc injection, 100 ng, experiment marked *.
Where [20] appears, read: 15 min. after sc injection, 100 ng, experiment marked *, LHRH* = 100.
Where [21] appears, read: 15 min. after sc injection, 1000 ng, LHRH = 100.
Where [22] appears, read: 15 min. after sc injection, 1000 ng, experiment marked *.
The mark [23] stands for this setting: 30 min. after sc injection, 50 ng, LHRH = 100.
The mark [24] stands for this setting: 30 min. after sc injection, 100 ng, LHRH = 100.
Setting [25] is: 30 min. after sc injection, 1000 ng, LHRH = 100.
[26] abbreviates: release 15 min. after sc injection, dosage of peptide 50 ng.
[27] abbreviates: release 30 min. after sc injection, dosage of peptide 50 ng.
Where [28] appears, read: release 30 min. after sc injection, dosage of peptide 100 ng.

Values joined by “and” are separate entries in the source; they are usually repeats but may differ in a detail not shown here. Equal values may be shown once. “Also recorded” adds a separate entry of the source. Non-standard residues stand in square brackets, D forms with d. Residues, ends and D or L forms follow the SMILES beside them. pGlu = O=C1CC[C@@H](C(=O)O)N1

For the compound `CC(C)C[C@H](NC(=O)CNC(=O)[C@H](Cc1ccc(O)cc1)NC(=O)[C@H](CO)NC(=O)[C@H](Cc1c[nH]c2ccccc12)NC(=O)[C@H](Cc1c[nH]cn1)NC(=O)[C@@H]1CCC(=O)N1)C(=O)N[C@@H](CC(C)C)C(=O)N1CCC[C@H]1C(=O)NCC(N)=O` [[Leu^8]--LHRH, p-Glu His Trp Ser Tyr Gly Leu Leu Pro Gly-NH2, reference compound], in [1], the “release of LH compared with LHRH” value is “relatively low activities”. Moreover, the “release of FSH compared with LHRH” value in assay [2] (sc injection, dose and time as stated in the source) was “relatively low activities”. Further, the “activity for LH release” value in [3] is reported as “Inactive”. Moreover, the “activity for FSH release” value in [4] was “Inactive”.

`NC(=O)CC[C@H](NC(=O)[C@H](Cc1c[nH]c2ccccc12)NC(=O)CNC(=O)[C@H](Cc1c[nH]cn1)NC(=O)[C@H](CO)NC(=O)[C@H](Cc1c[nH]c2ccccc12)NC(=O)[C@H](Cc1c[nH]cn1)NC(=O)[C@@H]1CCC(=O)N1)C(=O)N1CCC[C@H]1C(=O)NCC(N)=O` [[His^5 Trp^7 Gln^8]--LHRH, p-Glu His Trp Ser His Gly Trp Gln Pro Gly-NH2] ([pGlu]HWSHGWQPG-NH2): the values for the LH % change in [1] (setting [11]) and in [1] (setting [12]) were 46% and 65%, respectively. Besides, the LH in assay [1] (setting [13]) was 17 ng/mL; in [1] (setting [14]) it was 66 ng/mL; in [1] (setting [15]), 5 ng/mL; in assay [1] (setting [16]) it was 53 ng/mL. Further, the “release of LH compared with LHRH” value in assay [1] was “released less LH; also recorded: released equivalent levels of LH and FSH when monitored 15 minutes after injection; also recorded: as effective at 100 ng as LHRH; also recorded: about two times as effective as [His^5, Trp^7 Leu^8 ]-LHRH”. Moreover, in assay [2] (setting [11]), the FSH % change is 68% and 67.8%. The FSH was 403 ng/mL in [2] (setting [13]), 486 ng/mL in [2] (setting [14]), 404 ng/mL in assay [2] (setting [15]) and 1161 ng/mL in [2] (setting [16]). The “level at which effectiveness in the radioreceptor assay for LHRH is achieved, times that of LHRH” value in assay [5] is listed as 46 times. For the same compound, the “release of FSH compared with LHRH” value in assay [6] was “as much FSH at the higher dosage of 3000 ng as LHRH; also recorded: released equivalent levels of LH and FSH when monitored 15 minutes after injection; also recorded: released as much FSH as LHRH”.

For `CC(C)C[C@H](NC(=O)CNC(=O)[C@H](Cc1ccc(O)cc1)NC(=O)[C@H](CO)NC(=O)[C@H](Cc1c[nH]c2ccccc12)NC(=O)[C@H](Cc1c[nH]cn1)NC(=O)[C@@H]1CCC(=O)N1)C(=O)N[C@@H](CCCNC(=N)N)C(=O)N1CCC[C@H]1C(=O)NCC(N)=O` [LHRH, pGlu--His--Trp--Ser--Tyr--Gly--Leu--Arg--Pro--Gly--NH2, reference compound], the LH % change in assay [1] (setting [17]) is 100%; in assay [1] (setting [18]), 100%; in assay [1] (setting [20]), 100%; in [1] (setting [21]), 100%; in assay [1] (15 min. after sc injection, 1000 ng, experiment marked *, LHRH* = 100), 100%; in assay [1] (setting [23]) it was 100%. The LH % change in assay [1] (setting [24]), in assay [1] (setting [25]), in assay [1] (setting [11]) and in assay [1] (setting [12]) was 100% each time. In addition, the LH in assay [1] (setting [19]) is 21 ng/mL; in [1] (setting [22]), 39 ng/mL; in assay [1] (setting [26]) it was 16 ng/mL; in assay [1] (setting [13]), 24 ng/mL; in assay [1] (setting [14]), 57 ng/mL; in assay [1] (setting [27]) it was 18 ng/mL. Besides, the LH in assay [1] (setting [28]) is 11 ng/mL; in assay [1] (setting [15]) it was 11 ng/mL and 17 ng/mL; in assay [1] (setting [16]) it was 82 ng/mL and 113 ng/mL. Besides, the FSH % change in assay [2] (setting [17]), in assay [2] (setting [18]), in assay [2] (setting [20]), in assay [2] (setting [21]), in assay [2] (setting [23]) and in assay [2] (setting [24]) was 100% in each case. The FSH % change in [2] (setting [25]), in assay [2] (setting [11]) and in assay [2] (setting [12]) was 100% each time. Moreover, the FSH was found to be 455 ng/mL in [2] (setting [19]); 576 ng/mL in assay [2] (setting [22]); 550 ng/mL in assay [2] (setting [26]); 465 ng/mL in assay [2] (setting [13]); 483 ng/mL in assay [2] (setting [14]); 515 ng/mL in assay [2] (setting [27]). The FSH in [2] (setting [28]) was 494 ng/mL and 434 ng/mL; in [2] (release 30 min. after sc injection, dosage of peptide 1000 ng) it was 691 ng/mL and 1010 ng/mL; in [2] (setting [15]), 596 ng/mL and 554 ng/mL; in assay [2] (setting [16]), 1173 ng/mL and 1501 ng/mL. Further, the “activity (potency) to release LH relative to P/O LHRH” value in assay [7] is listed as 100%. Moreover, the “activity to release FSH relative to P/O LHRH” value in assay [8] was 100%. The FSH released entry in assay [9] is recorded as “ca. 18,000 ng/ml”.

For “[N-Ac-D-2-Nal^1, D-pClPhe^2, D-3-Pal^3, D-Arg^6, Trp^7, D-Ala10 ]-LHRH”, in assay [10], the antiovulatory activity result is on record as “ca. 90%”.
